Consider one compound from patent US20140228287A1, “1-[(3-CYANO-PYRIDIN-2-YL)METHYL]-3-METHYL-7-(2-BUTYN-1-YL)-8-[3-(R)-AMINO-PIPERIDIN-1-YL]-AXANTHINE FOR THE TREATMENT OF A METABOLIC DISORDER OF A PREDOMINANTLY CARNIVOROUS NON-HUMAN ANIMAL” (BOEHRINGER INGELHEIM VETMEDICA GMBH, priority 2010, published 2014).

The subject of one data set is plasma DPP IV. The data set is described as follows: Plasma DPP IV activity after oral administration, Beagle dog. In kind it is in vivo. Conditions: 3 mg/kg oral, 24 hours post dose. How it is done: The effect of 1-[(3-cyano-pyridin-2-yl)methyl]-3-methyl-7-(2-butyn-1-yl)-8-[3-(R)-amino-piperidin-1-yl]-xanthine on plasma DPP IV activity after oral administration was investigated in the rat, the Beagle dog and the Rhesus monkey. These investigations were conducted as described in the following.
Overnight fasted male Beagle dogs (n=4 per group) were administered oral doses of 1-[(3-cyano-pyridin-2-yl)methyl]-3-methyl-7-(2-butyn-1-yl)-8-[3-(R)-amino-piperidin-1-yl]-xanthine monohydrochloride at 3 and 12 mg/kg body weight. Blood samples were drawn from a butterfly inserted in either the right or left forearm vein. Blood was collected in EDTA tubes prior to administration of 1-[(3-cyano-pyridin-2-yl)methyl]-3-methyl-7-(2-butyn-1-yl)-8-[3-(R)-amino-piperidin-1-yl]-xanthine monohydrochloride and subsequently at 1, 2, 4, 8, and 24 hour time points post dose. Plasma was prepared following blood collection and frozen for determination of DPP-IV activity.

The nature of data set [1]: Exploratory single dose PK/PD (1.0/5.0/10.0 mg/kg) in cats: pharmacokinetics. Conditions: cat; for AUC(0-inf) / Cmax / MRT / Tmax / half-life: male, domestic short hair, plasma, free base by LC-MS/MS; for half-life: read-out: T1/2, mean (converted). It is filed as in vivo. The method, then:
The aim of this study was to investigate the PK/PD behaviour of 1-[(3-cyano-pyridin-2-yl)methyl]-3-methyl-7-(2-butyn-1-yl)-8-[3-(R)-amino-piperidin-1-yl]-xanthine in the cat following a single oral administration of 0, 1, 5 and 10 mg/kg body weight (dosages were based on the free base: 1 mg 1-[(3-cyano-pyridin-2-yl)methyl]-3-methyl-7-(2-butyn-1-yl)-8-[3-(R)-amino-piperidin-1-yl]-xanthine monohydrochloride corresponds to 0.923 mg 1-[(3-cyano-pyridin-2-yl)methyl]-3-methyl-7-(2-butyn-1-yl)-8-[3-(R)-amino-piperidin-1-yl]-xanthine free base).
Twelve clinically healthy male adult domestic short hair cats with a body weight range of 3.5-4.7 kg were used in this study. All animals were treated orally once via a stomach tube. Blood samples for pharmacokinetic and pharmacodynamic (DPP IV activity) investigations were drawn at 0 h (i.e. prior to treatment), 30 min as well as 1, 2, 4, 8, 8.5, 9, 12, 24, 36, 48, 72, 84 and 96 h after treatment. Blood samples for pharmacodynamic (glucagon-like peptide 1 concentrations) investigations were drawn at −16 (i.e. prior to feeding), −15.5, −15 h as well as at 8 h (i.e. prior to feeding), 8.5 and 9 h after treatment.
PK data for 1-[(3-cyano-pyridin-2-yl)methyl]-3-methyl-7-(2-butyn-1-yl)-8-[3-(R)-amino-piperidin-1-yl]-xanthine free base were determined with a validated LC-MS/MS method and are summarized in Table 6.

Another data set concerns the target T1, DPP IV (Felis catus, UniProt Q9N2I7).
T1 construct: Blood samples for the determination of this compound and DPP IV activity were collected; from tissue; host or cells: plasma of domestic short hair / purpose-bred cats dosed orally
As to the kind of experiment: 60-Day tolerability study of tablets in cats: relative DPP IV activity. In kind it is in vivo, cat. Conditions: percent of day 2 predose. How it is done: This study was conducted in order to examine the long-term tolerability of a pharmaceutical composition comprising 1-[(3-cyano-pyridin-2-yl)methyl]-3-methyl-7-(2-butyn-1-yl)-8-[3-(R)-amino-piperidin-1-yl]-xanthine monohydrochloride in cats after repeated oral administration for 60-days.
For this purpose, the compound according to the invention has been admixed with standard ingredients to a scored, oblong, brown tablet, size 10×5.5 mm, comprising 1-[(3-cyano-pyridin-2-yl)methyl]-3-methyl-7-(2-butyn-1-yl)-8-[3-(R)-amino-piperidin-1-yl]-xanthine monohydrochloride at 21.68 mg of the chloride per tablet (which equals 20 mg of the free base) and 10% meat flavour.
20 male healthy non-obese cats (Domestic short hair feline) supplied by Liberty Research, Inc., Waverly, N.Y., USA, of an age of 13 to 20 months were used. After an adaptation period of 4 weeks, they were separated into three groups: group 1 (6 members, no. 1 to 6) for placebo treatment, group 2 (7 members, no. 7 to 13) for treatment with 20 mg/cat, group 3 (7 members, no. 14 to 20) for treatment with 40 mg/cat. They were treated once daily in the morning, orally with the respective tablet(s) for 60 days. All animals had fasted over night and were fed 4 hours after the administration. Drinking water was offered ad libitum. Housing conditions etc. were kept constant and equally for all animals; they were kept in groups during the adaptation period and singly during the experimental period.
Relative DPP-IV activity was measured as described above.

Where a name gives a salt, the structure may show the parent alone. Read-outs that look alike come from different tables or passages of the source.

The AUC(0-inf) is the area under the concentration-time curve extrapolated to infinity. A lower AUC(0-inf) goes with low exposure. In general, Cmax refers to the highest concentration seen after dosing. By MRT is commonly meant the average time that molecules of a dose stay in the body. A word on the Tmax: it is the time from dosing to the highest level.

T1 sequence (Q9N2I7 38-765 limits assumed): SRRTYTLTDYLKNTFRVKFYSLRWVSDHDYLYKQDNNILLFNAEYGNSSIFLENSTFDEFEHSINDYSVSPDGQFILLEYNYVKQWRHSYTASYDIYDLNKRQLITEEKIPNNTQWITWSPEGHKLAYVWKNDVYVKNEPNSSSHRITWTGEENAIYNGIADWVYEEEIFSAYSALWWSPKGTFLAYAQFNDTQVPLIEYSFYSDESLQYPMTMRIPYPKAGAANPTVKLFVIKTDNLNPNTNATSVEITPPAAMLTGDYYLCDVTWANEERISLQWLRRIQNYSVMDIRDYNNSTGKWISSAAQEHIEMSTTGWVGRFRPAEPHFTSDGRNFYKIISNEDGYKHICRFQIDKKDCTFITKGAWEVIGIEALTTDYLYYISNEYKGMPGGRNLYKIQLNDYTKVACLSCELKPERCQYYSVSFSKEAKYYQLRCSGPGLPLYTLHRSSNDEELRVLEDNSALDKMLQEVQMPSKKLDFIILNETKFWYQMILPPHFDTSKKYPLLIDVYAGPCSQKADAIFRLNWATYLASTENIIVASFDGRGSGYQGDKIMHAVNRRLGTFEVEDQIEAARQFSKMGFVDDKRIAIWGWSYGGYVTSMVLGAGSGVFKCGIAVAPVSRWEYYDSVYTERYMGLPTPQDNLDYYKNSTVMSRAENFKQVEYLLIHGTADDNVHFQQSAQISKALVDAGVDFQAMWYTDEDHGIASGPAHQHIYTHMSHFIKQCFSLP

Consider `CC#CCn1c(N2CCC[C@@H](N)C2)nc2c1c(=O)n(Cc1ncccc1C#N)c(=O)n2C` [1-[(3-cyano-pyridin-2-yl)methyl]-3-methyl-7-(2-butyn-1-yl)-8-[3-(R)-amino-piperidin-1-yl]-xanthine monohydrochloride], for which the “inhibition of plasma DPP IV activity” value with plasma DPP IV was 76%. Further, the half live entry in data set [1] (single oral 1.0, 5.0, 10.0 mg/kg) is listed as “over 25 hours”. In addition, the figures for the total exposure AUC(0-inf) in data set [1] (1.0 mg/kg single oral), in data set [1] (5.0 mg/kg single oral) and in data set [1] (10 mg/kg single oral) were 1.14 µM·h, 5.48 µM·h and 26.3 µM·h, respectively. In addition, the highest concentration (Cmax) in data set [1] (1.0 mg/kg single oral) amounted to 175 nM; in data set [1] (5.0 mg/kg single oral), 931 nM; in data set [1] (10 mg/kg single oral), 5470 nM. Besides, the MRT was found to be 12.3 h in data set [1] (1.0 mg/kg single oral), 6.76 h in data set [1] (5.0 mg/kg single oral) and 5.73 h in data set [1] (10 mg/kg single oral). For the same compound, the Tmax turned out to be 1.33 h in data set [1] (1.0 mg/kg single oral), 1.83 h in data set [1] (5.0 mg/kg single oral) and 1.33 h in data set [1] (10 mg/kg single oral). In addition, the half-life in data set [1] (1.0 mg/kg single oral) was 25.4 h; in data set [1] (5.0 mg/kg single oral) it was 28.8 h; in data set [1] (10 mg/kg single oral), 37.6 h. In addition, the “Relative DPP IV activity” value on DPP IV (Group no. 2 (20 mg daily tablets), Treatment day 60 (1 h after dose)) is 11%; at DPP IV (Group no. 2, excl. animal no. 8 (20 mg daily tablets), Treatment day 60 (predose)) it was 17%; on DPP IV (Group no. 3 (40 mg daily tablets), Treatment day 60 (1 h after dose)) it was 10%; on DPP IV (Group no. 3 (40 mg daily tablets), Treatment day 60 (predose)) it was 16%.
